Data published in patent US5597822A, “Pharmaceutical compositions for the prevention and/or treatment a gastrointestinal diseases” (Egis Pharmaceutical, priority 1993, dated 1997).

How the values were obtained:
[1] = system: Helicobacter pylori; assay: Antibacterial effect on Helicobacter pylori (MIC, blood agar); format: cell-based; conditions: for MIC: Helicobacter pylori, 72 h
Protocol: Helicobacter pylori strains used in these experiments were obtained from the biopsial samples of the stomachs of patients suffering from ulcerative diseases of the gastrointestinal system. From the pure culture of isolates a thick suspension was prepared with cysteine-inositol solution suitable for lyophilisation, and the suspension obtained was maintained in cold-resistant plastic ampoules in a deep-freezing chamber at a temperature of about -196 ° C. For the determination of the inhibitory effect of the compounds tested on Helicobacter pylori, blood agar containing 10 mg/liter of vancomycin and 25 mg/liter of amphotericin B was used /C. A. M. McNulty and I. C. Dent: Susceptibility of clinical isolates of Campylobacter pylori to twenty one antimicrobial agents. Book of Abstracts, 4th European Congress of Clinical Microbiology, Nice (1989)/.
The plates containing the strains were cultivated at 37° C. for 72 hours under a gaseous atmosphere containing 10 per cent of carbon dioxide and 5 per cent of oxygen /D. M. Jones et al., J. Clin. Pathol., 37, 1002 (1984)/.
The culture media were inoculated by diluting the broth culture of the strains grown overnight or with a suspension prepared from a culture obtained on a solid medium. About 10^5 of germs were applied to the surface of each plate.
A series of dilution were prepared from the compound to be-tested. The MIC (minimal inhibiting concentration) value of the compounds tested was considered to be the lowest concentration inhibiting the growth of the test organism completely.

[2] = system: gastric acid secretion; assay: Effect on the gastric acid secretion (Shay's method, pylorus ligation); format: in vivo, Wistar rats; conditions: rat, p.o., test according to Shay
Protocol: The influence of the compounds on the gastric acid secretion was examined on starved Wistar rats of both sexes weighing 180 to 240 g each by using Shay's method /H. Shay et al., Gastroenterology, 5, 45 (1945)/. The compounds to be tested were given, perorally, 3 hours before the ligation of the pylorus. Four hours after the operation, the animals were killed by an overdose of ether, the stomach was excised, the stomach content was centrifuged and the free hydrochloric acid content of the gastric juice was determined by titration in the presence of Topfer's reagent. The percentage of inhibition and then the ED50 values were determined by calculating average values for the groups and comparing those to the average values for the control group.

[3] = system: gastric erosions induced by ethanol containing hydrochloric acid; assay: Test with ethanol containing hydrochloric acid (gastric erosions); format: in vivo, rat; conditions: po; rat, p.o., HCl/absolute ethanol 1 to 50; erosion index; read-out: Inhibition of the erosion index, ED50 p.o.
Protocol: (§1) Rats of both sexes weighing 200 to 250 g, each previously starved for 24 hours, were used in this experiment. The lesions of gastric mucosa were induced by the oral administration of absolute ethanol in a dose of 1 ml/animal. After one hour following the administration, the animals were killed by an overdose of ether, the stomach was excised and the alterations of gastric mucosa were examined. The lengths of the erosions were measured and summarized (expressed in mm) for each stomach to obtain the erosion index by calculating the average value of the group. The inhibition was calculated in percentage by comparing the value of the group treated with ethanol to that of the control group treated only with the vehicle. Various doses of the compounds to be tested were administered, perorally, in a volume of 5 ml/kg using a pretreatment time of 60 minutes. Eight rats were used for each dose. /A. Robert, Gastroenterology 77, 761-767 (1979)/.
The principle of the method consists in that, simultaneously with the administration of absolute ethanol, hydrochloric acid is introduced to the stomach. Thus, the influence on systemic gastric acid inhibition action can be eliminated by the presence of the exogenous acid.
The reagent used in this test was a mixture of concentrated aqueous hydrochloric acid and absolute ethanol in a mass ratio of 1 to 50 in accordance with the dilution ratio used by Yamazaki et al., see Japan J. Pharmacol., 55, 415-424 (1991). Otherwise, the experiment was performed as described under test 2.1., however, in addition to the erosion index calculated from the lengths of the erosions in mm, the ratio of occurence of animals showing at least one gastric erosion within a test group, i.e. the erosion frequency, was also evaluated.

[4] = system: gastric mucosa lesions induced by absolute ethanol; assay: Gastroprotective activity, test with absolute ethanol (gastric mucosa erosions); format: in vivo, rat
Protocol: as §1
^x Relative activity = ED50 value of the gastric acid inhibition
related to the ED50 value of the inhibition of the gastric erosion.

## NC[C@H]1CC[C@H](C(=O)Oc2ccc(CCC(=O)O)cc2)CC1 [cetraxate, trans-3-[4-[4-(aminomethyl)cyclohexylcarbonyloxy]phenyl]-propionic acid, reference compound]
[1]; Table IV, strains not specified, unit inferred
  MIC: > 500 µg/mL
[1]; strain 867/90
  MIC: > 500 µg/mL
[1]; strain 1596
  MIC: > 500 µg/mL
[1]; strain 3842
  MIC: > 500 µg/mL
[1]; strain 6656
  MIC: > 500 µg/mL
[1]; strain 6709
  MIC: > 500 µg/mL
[1]; Table IV
  effect on Helicobacter pylori (in words): ineffective at the concentration indicated
[2]
  gastric acid secretion inhibition (in words): only a moderate gastric acid secretion inhibition
[3]
  ED50: 22 mg/kg
[4]; po, rat, 60 min pretreatment, absolute ethanol 1 ml/animal, erosion index
  ED50: 76.4 mg/kg
[4]; test with absolute ethanol
  gastroprotective activity (in words): nearly identical activity
